# Assay results as given in publication PMC6934184, “Selective DNA-PKcs inhibition extends the therapeutic index of localized radiotherapy and chemotherapy” (The Journal of Clinical Investigation, 2019).
# Target: T1, CSNK1E (CK1 epsilon) (Homo sapiens, UniProt P49674)
# T1 construct: purchased Thermo Fisher Scientific (Life Technologies) SelectScreen
# Experiment: SelectScreen Z'LYTE
# Format: biochemical
# Procedure, shortened: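 NU5455 was profiled across the SelectScreen Broad panel of kinase activity and binding assays. Z'LYTE reactions such as CSF1R ran at apparent Km ATP, while the Adapta CAMK1 assay used ATP listed as 10. Values are given as percent.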
# T1 sequence (P49674 whole entry): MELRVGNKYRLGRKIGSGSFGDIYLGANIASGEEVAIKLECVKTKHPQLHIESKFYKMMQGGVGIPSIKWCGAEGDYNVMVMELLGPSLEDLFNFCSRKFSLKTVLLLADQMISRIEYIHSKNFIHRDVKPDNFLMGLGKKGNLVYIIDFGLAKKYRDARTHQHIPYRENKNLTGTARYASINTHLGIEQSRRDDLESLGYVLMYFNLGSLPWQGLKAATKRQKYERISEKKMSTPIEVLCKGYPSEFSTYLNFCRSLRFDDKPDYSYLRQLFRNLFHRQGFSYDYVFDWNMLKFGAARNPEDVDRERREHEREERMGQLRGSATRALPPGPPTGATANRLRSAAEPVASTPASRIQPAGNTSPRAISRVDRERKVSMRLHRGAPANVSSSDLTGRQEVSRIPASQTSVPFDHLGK
structure (smiles),measurement,value
CN(C(=O)CN1CCOCC1)c1ccc2sc3c(-c4cccc5c(=O)cc(N6CC7CCC(C6)O7)oc45)cccc3c2c1 [NU5455],inhibition at 1 µM,-10.9%
